Source: US20230060425A1, “FUSED BICYCLIC HETEROCYCLE DERIVATIVES AS PESTICIDES” (Bayer Aktiengesellschaft, priority 2019, published 2023)
Read-outs that look alike come from different tables or passages of the source.

What was measured:
Assay type in all cases: in vivo
Myzus persicae [1] = experiment: Myzus persicae oral test; conditions: 120 h, read-out: efficacy
Protocol: Solvent: 100 parts by weight of acetone
To produce a suitable preparation of active compound, 1 part by weight of active compound is dissolved using the specified parts by weight of solvent and made up with water until the desired concentration is attained.
50 μl of the active compound preparation are transferred into microtitre plates and made up to a final volume of 200 μl with 150 μl of IPL41 insect medium (33%+15% sugar). Subsequently, the plates are sealed with parafilm, which a mixed population of green peach aphids (Myzus persicae) within a second microtitre plate is able to puncture and imbibe the solution through it.
(§1) After 5 days, the efficacy in % is determined. 100% means that all the aphids have been killed; 0% means that no aphids have been killed.

Phaedon cochleariae = Phaedon cochleariae spray test; conditions: foliar, 168 h, read-out: efficacy
Protocol: Phaedon cochleariae—Spray Test
(§2) Solvent: • 78.0 parts by weight of acetone • 1.5 parts by weight of dimethylformamide
(§3) Emulsifier: alkylaryl polyglycol ether
(§4) To produce a suitable active compound preparation, 1 part by weight of active compound is dissolved using the stated parts by weight of solvent and made up with water containing an emulsifier concentration of 1000 ppm until the desired concentration is attained. To produce further test concentrations, the formulation is diluted with emulsifier-containing water.
Discs of Chinese cabbage leaves (Brassica pekinensis) are sprayed with an active compound formulation of the desired concentration and, after drying, populated with larvae of the mustard beetle (Phaedon cochleariae).
After 7 days, the efficacy in % is determined. 100% means that all the beetle larvae have been killed; 0% means that no beetle larvae have been killed.

Spodoptera frugiperda = Spodoptera frugiperda spray test; conditions: foliar, 168 h, read-out: efficacy
Protocol: Spodoptera frugiperda—Spray Test
as §2, §3
To produce further test concentrations, the formulation is diluted with emulsifier-containing water.
After 7 days, the efficacy in % is determined. 100% means that all the caterpillars have been killed; 0% means that no caterpillar has been killed.

Diabrotica balteata = Diabrotica balteata spray test; conditions: 168 h, application rate 160 μg/cavity (μg/well), wheat grains, after 7 days, read-out: efficacy
Protocol: Diabrotica balteata—Spray Test
(§5) Solvent: • 78 parts by weight of acetone • 1.5 parts by weight of dimethylformamide
as §3, §4
Pre-swollen wheat grains (Triticum aestivum) are incubated in a multiwell plate filled with agar and a little water for one day (5 seed grains per well). The germinated wheat grains are sprayed with an active compound preparation of the desired concentration. Subsequently, each cavity is infected with 10-20 beetle larvae of Diabrotica balteata.
After 7 days, the efficacy in % is determined. 100% means that all wheat plants have grown as in the untreated, uninfected control; 0% means that no wheat plant has grown.

Meloidogyne incognita = Meloidogyne incognita test; conditions: 336 h, application rate 20 ppm, lettuce, after 14 days, formation of galls, read-out: nematicidal efficacy
Protocol: Meloidouyne incognita Test
Solvent: 125.0 parts by weight of acetone
To produce a suitable active compound formulation, 1 part by weight of active compound is mixed with the stated amount of solvent and the concentrate is diluted to the desired concentration with water.
Vessels are filled with sand, active compound solution, an egg/larvae suspension of the southern root-knot nematode (Meloidogyne incognita) and lettuce seeds. The lettuce seeds germinate and the plants develop. The galls develop on the roots.
After 14 days, the nematicidal efficacy in % is determined by the formation of galls. 100% means that no galls were found; 0% means that the number of galls on the treated plants corresponds to the untreated control.

Myzus persicae [2] = experiment: Myzus persicae spray test; conditions: foliar, 120 h, application rate 100 g/ha, Chinese cabbage leaf discs, after 5 days, read-out: efficacy
Protocol: Myzus persicae—Spray Test
as §5, §3, §4
Discs of Chinese cabbage leaves (Brassica pekinensis) infested by all stages of the green peach aphid (Myzus persicae) are sprayed with an active compound formulation of the desired concentration.
as §1

Ctenocephalides felis [3] = experiment: Ctenocephalides felis in vitro contact test with adult cat fleas; conditions: application rate 5 μg/cm^2 (=500 g/ha); after 48 h; fleas dead or moribund
Protocol: Ctenocephalides felis—In Vitro Contact Tests with Adult Cat Fleas
For the coating of the test tubes, 9 mg of active compound are first dissolved in 1 ml of acetone p.a. and then diluted to the desired concentration with acetone p.a. 250 μl of the solution are distributed homogeneously on the inner walls and the base of a 25 ml glass tube by turning and rocking on an orbital shaker (rocking rotation at 30 rpm for 2 h). With 900 ppm of active compound solution and internal surface area 44.7 cm^2, given homogeneous distribution, an area-based dose of 5 μg/cm^2 is achieved.
After the solvent has evaporated off, the tubes are populated with 5-10 adult cat fleas (Ctenocephalides felis), sealed with a perforated plastic lid and incubated in a horizontal position at room temperature and ambient humidity. After 48 h, efficacy is determined. To this end, the tubes are stood upright and the fleas are knocked to the base of the tube. Fleas which remain motionless at the base or move in an uncoordinated manner are considered to be dead or moribund.
100% efficacy means that all the fleas were dead or moribund. 0% efficacy means that no fleas were harmed.

Ctenocephalides felis [4] = experiment: Ctenocephalides felis oral test; conditions: 48 h, application rate 100 ppm, in citrated cattle blood, after 2 days, read-out: efficacy (kill in %)
Protocol: Ctenocephalides felis—Oral Test
Solvent: Dimethyl sulfoxide
To produce a suitable active compound formulation, 10 mg of active compound are mixed with 0.5 ml of dimethyl sulfoxide. Dilution with citrated cattle blood gives the desired concentration.
About 20 unfed adult cat fleas (Ctenocephalides felis) are placed into a chamber which is closed at the top and bottom with gauze. A metal cylinder whose bottom end is closed with parafilm is placed onto the chamber. The cylinder contains the blood/active compound formulation, which can be imbibed by the fleas through the parafilm membrane.
After 2 days, the kill in % is determined. 100% means that all of the fleas have been killed; 0% means that none of the fleas have been killed.

[5] = application rate 4 ppm, after 5 days
[6] = application rate 100 g/ha, Chinese cabbage leaf discs, after 7 days
[7] = application rate 100 g/ha, maize leaf discs, after 7 days

Row | SMILES | pest or weed control at 4 ppm (Myzus persicae [1]; [5]) | pest or weed control at 100 g/ha (Phaedon cochleariae; [6]) | pest or weed control at 100 g/ha (Spodoptera frugiperda; [7]) | pest or weed control at 160 µg/well (Diabrotica balteata) | pest or weed control at 20 ppm (Meloidogyne incognita) | pest or weed control at 100 g/ha (Myzus persicae [2]) | efficacy (Ctenocephalides felis [3]) | pest or weed control at 100 ppm (Ctenocephalides felis [4]) | pest or weed control at 4 ppm (Myzus persicae [1]) | pest or weed control at 100 g/ha (Phaedon cochleariae; in Brassica rapa) | pest or weed control at 100 g/ha (Spodoptera frugiperda; in Zea mays)
1 | CCS(=O)(=O)c1c(-c2nc3cc(C(F)(F)F)cnc3n2C)ncc2ccc(C(F)(F)F)cc12 [Example I-021] | 100% | 100% | 100% | – | – | – | – | – | – | – | –
2 | CCS(=O)(=O)c1c(-c2nc3cc(C(F)(F)F)nnc3n2C)ncc2cc(C(F)F)ccc12 [Example I-041] | 100% | – | 100% | 100% | 100% | 90% | – | – | – | – | –
3 | CCS(=O)(=O)c1c(-c2nc3cc(C(F)(F)F)nnc3n2C)ncc2c(Br)cccc12 [Example I-027] | 100% | – | 100% | 100% | 100% | 70% | – | – | – | – | –
4 | CCS(=O)(=O)c1c(-c2nc3cc(C(F)(F)F)nnc3n2C)ncc2cc(C(F)(F)F)ccc12 [Example I-025] | 100% | – | 100% | 100% | – | 90% | 100% | 100% | – | – | –
5 | CCS(=O)(=O)c1c(-c2nc3cc(C(F)(F)F)nnc3n2C)ncc2cc(Cl)ccc12 [Example I-008] | 100% | 100% | 100% | – | 100% | – | – | 100% | – | – | –
6 | CCS(=O)(=O)c1c(-c2nc3cc(C(F)(F)C(F)(F)F)cnc3n2C)ncc2c(C(F)(F)F)cccc12 [Example I-014] | 90% | 100% | 100% | – | – | 100% | – | – | – | – | –
7 | CCS(=O)(=O)c1c(-c2nc3cc(C(F)(F)F)ncc3n2C)ncc2c(C(F)(F)F)cccc12 [Example I-013] | 100% | 100% | 100% | – | – | 100% | – | 100% | – | – | –
8 | CCS(=O)(=O)c1c(-c2nc3cc(C(F)(F)F)cnc3n2C)ncc2cc(C3CC3)ccc12 [Example I-007] | 100% | 100% | 67% | – | – | – | – | – | – | – | –
9 | CCS(=O)(=O)c1c(-c2nc3cc(C(F)(F)F)nnc3n2C)ncc2cc(C)ccc12 [Example I-003] | 100% | – | – | – | – | 90% | – | 80% | – | – | –
10 | CCS(=O)(=O)c1c(-c2nc3cc(C(F)(F)F)cnc3n2C)ncc2cc(NC(C)=O)ccc12 [Example I-035] | 100% | 100% | – | – | – | 90% | – | – | – | – | –
11 | CCS(=O)(=O)c1c(-c2nc3cc(C(F)(F)F)cnc3n2C)ncc2cc(NC(=O)C3CC3)ccc12 [Example I-038] | 100% | 100% | 100% | – | – | – | – | – | – | – | –
12 | CCS(=O)(=O)c1c(-c2nc3cc(C(F)(F)C(F)(F)F)cnc3n2C)ncc2c(Br)cccc12 [Example I-006] | 90% | – | 100% | 100% | 90% | 100% | – | – | – | – | –
13 | CCS(=O)(=O)c1c(-c2nc3cc(OC(F)(F)F)cnc3n2C)ncc2c(C(F)(F)F)cccc12 [Example I-024] | 100% | 100% | 100% | – | – | 90% | – | 80% | – | – | –
14 | CCS(=O)(=O)c1c(-c2nc3cc(C(F)(F)F)cnc3n2C)ncc2cc(C#N)ccc12 [Example I-001] | 100% | 100% | 100% | – | – | 90% | – | – | – | – | –
15 | CCS(=O)(=O)c1c(-c2nc3cc(C(F)(F)F)cnc3n2C)ncc2cc(SCC(F)(F)F)ccc12 [Example I-002] | 100% | 100% | – | – | – | 90% | – | – | – | – | –
16 | CCS(=O)(=O)c1c(-c2nc3cc(C(F)(F)C(F)(F)F)ncc3n2C)ncc2c(C(F)(F)F)cccc12 [Example I-012] | 100% | 100% | 100% | – | – | 90% | 90% | 100% | – | – | –
17 | CCS(=O)(=O)c1c(-c2nc3cc(C(F)(F)C(F)(F)F)ncc3n2C)ncc2c(C#N)cccc12 [Example I-020] | 100% | – | 100% | 100% | 90% | 90% | – | – | – | – | –
18 | CCS(=O)(=O)c1c(-c2nc3cc(S(=O)(=O)C(F)(F)F)cnc3n2C)ncc2c(Br)cccc12 [Example I-029] | 100% | – | 100% | 100% | – | 90% | – | – | – | – | –
19 | CCS(=O)(=O)c1c(-c2nc3cc(C(F)(F)F)cnc3n2C)ncc2c(Br)cccc12 [Example I-004] | 100% | – | 100% | 100% | 90% | – | – | – | – | – | –
20 | CCS(=O)(=O)c1c(-c2nc3cc(C(F)(F)F)cnc3n2C)ncc2c(C#N)cccc12 [Example I-026] | 90% | 100% | 100% | – | 90% | 100% | – | – | – | – | –
21 | CCS(=O)(=O)c1c(-c2nc3cc(C(F)(F)F)cnc3n2C)ncc2cc(NC(=O)OC)ccc12 [Example I-022] | – | – | – | – | – | – | – | – | 100% | 100% | 100%
22 | CCS(=O)(=O)c1c(-c2nc3cc(C(F)(F)F)nnc3n2C)ncc2ccc(C(F)F)cc12 [Example I-042] | 100% | – | 83% | 100% | 90% | 100% | – | – | – | – | –
